From patent US20090124645A1, “Novel Pyrimidine-2,4-Diamine Derivatives and their Use as Modulators of Small-Conductance Calcium-Activated Potassium Channels” (NeuroSearch A/S, priority 2005, published 2009)
Counter-ions that a name gives are not always drawn.

| melting point [°C] | SMILES |
| --- | --- |
| 213 to 216 | Clc1ccc(CNc2ccnc(NCc3ccc(Cl)cc3)n2)cc1 (as salt: HCl) [Example 7, N^2,N^4-Bis(4-chlorobenzyl)pyrimidine-2,4-diamine] |
| 151 to 154 | CC(Nc1ccnc(NC(C)c2ccc(F)cc2)n1)c1ccc(F)cc1 (stereo not drawn) (as salt: HCl) [Example 5, N^2,N^4-Bis[1-(4-fluorophenyl)ethyl]pyrimidine-2,4-diamine] |
| 201 to 204 | Clc1ccc(CCNc2ccnc(NCCc3ccc(Cl)cc3)n2)cc1 (as salt: HCl) [Example 11, N^2,N^4-Bis[2-(4-chlorophenyl)ethyl]pyrimidine-2,4-diamine] |
| 172 | FC(F)(F)c1cccc(CNc2ccnc(NCc3cccc(C(F)(F)F)c3)n2)c1 (as salt: HCl) [Example 3, N^2,N^4-Bis[3-(trifluoromethyl)benzyl]pyrimidine-2,4-diamine] |
| 167 to 170 | Clc1ccc(CNc2ccnc(NCc3ccc(Cl)c(Cl)c3)n2)cc1Cl (as salt: HCl) [Example 4, N^2,N^4-Bis(3,4-dichlorobenzyl)pyrimidine-2,4-diamine] |
| 177.4 to 179.4 | Fc1ccc(CCNc2ccnc(NCCc3ccc(F)cc3)n2)cc1 (as salt: HCl) [Example 10, N^2,N^4-Bis[2-(4-fluorophenyl)ethyl]pyrimidine-2,4-diamine] |
